{"source": "patent US8350062B2", "about": "“Synthesis and anticancer activity of new actin-targeting small-molecule agents” (priority 2009, dated 2013)", "test_in_all_cases": "NCI 60 cell line single dose screen", "type_in_all_cases": "cell-based, human", "key": {"[1]": {"test_system": "OVCAR-8", "settings": "OVCAR-8 (Ovarian Cancer), 10 micromolar, 48 h", "description": "(§1) Analog 10 was screened utilizing 60 different human tumor cell lines, representing leukemia, melanoma and cancers of the lung, colon, brain, ovary, breast, prostate, and kidney in order to show selective growth inhibition or cell killing of particular tumor cell lines. This screen is unique in that the complexity of a 60 cell line dose response produced by a given compound results in a biological response pattern which can be utilized in pattern recognition algorithms (COMPARE program. See: http://dtp.nci.nih.gov/docs/compare/compare.html). Using these algorithms, it is possible to assign a putative mechanism of action to a test compound, or to determine that the response pattern is unique and not similar to that of any of the standard prototype compounds included in the NCI database. In addition, following characterization of various cellular molecular targets in the 60 cell lines, it may be possible to select compounds most likely to interact with a specific molecular target.\n(§2) The screening is a two-stage process, beginning with the evaluation of the compound against the 60 cell lines at a single dose of 10 uM.\n(§3) The human tumor cell lines of the cancer screening panel are grown in RPMI 1640 medium containing 5% fetal bovine serum and 2 mM L-glutamine. For a typical screening experiment, cells are inoculated into 96 well microtiter plates in 100 μL at plating densities ranging from 5,000 to 40,000 cells/well depending on the doubling time of individual cell lines. After cell inoculation, the microtiter plates are incubated at 37° C., 5% CO2, 95% air and 100% relative humidity for 24 h prior to addition of experimental drug.\n(§4) After 24 h, two plates of each cell line are fixed in situ with TCA, to represent a measurement of the cell population for each cell line at the time of drug addition (Tz). Experimental drugs are solubilized in dimethyl sulfoxide at 400-fold the desired final maximum test concentration and stored frozen prior to use. At the time of drug addition, an aliquot of frozen concentrate is thawed and diluted to twice the desired final maximum test concentration with complete medium containing 50 μg/ml gentamicin.\n(§5) Following drug addition, the plates are incubated for an additional 48 h at 37° C., 5% CO2, 95% air, and 100% relative humidity. For adherent cells, the assay is terminated by the addition of cold TCA. Cells are fixed in situ by the gentle addition of […] of cold 50% (w/v) TCA (final concentration, 10% TCA) and incubated for 60 minutes at 4° C. The supernatant is discarded, and the plates are washed five times with tap water and air dried. Sulforhodamine B (SRB) solution (100 μl) at 0.4% (w/v) in 1% acetic acid is added to each well, and plates are incubated for 10 minutes at room temperature. After staining, unbound dye is removed by washing five times with 1% acetic acid and the plates are air dried. Bound stain is subsequently solubilized with 10 mM trizma base, and the absorbance is read on an automated plate reader at a wavelength of 515 nm. For suspension cells, the methodology is the same except that the assay is terminated by fixing settled cells at the bottom of the wells by gently adding 50 μl of 80% TCA (final concentration, 16% TCA). Using the absorbance measurements [time zero, (Tz), control growth, (C), and test growth in the presence of drug (Ti)], the percentage growth is calculated."}, "[2]": {"test_system": "MDA-MB-468", "settings": "MDA-MB-468 (Breast Cancer), 10 micromolar, 48 h", "description": "as §1, §2, §3, §4, §5"}, "[3]": {"test_system": "SF-295", "settings": "SF-295 (CNS Cancer), 10 micromolar, 48 h", "description": "as §1, §2, §3, §4, §5"}, "[4]": {"test_system": "TK-10", "settings": "TK-10 (Renal Cancer), 10 micromolar, 48 h", "description": "as §1, §2, §3, §4, §5"}, "[5]": {"test_system": "HS 578T", "settings": "HS 578T (Breast Cancer), 10 micromolar, 48 h", "description": "as §1, §2, §3, §4, §5"}, "[6]": {"test_system": "UACC-257", "settings": "UACC-257 (Melanoma), 10 micromolar, 48 h", "description": "as §1, §2, §3, §4, §5"}, "[7]": {"test_system": "U251", "settings": "U251 (CNS Cancer), 10 micromolar, 48 h", "description": "as §1, §2, §3, §4, §5"}, "[8]": {"test_system": "786-0", "settings": "786-0 (Renal Cancer), 10 micromolar, 48 h", "description": "as §1, §2, §3, §4, §5"}, "[9]": {"test_system": "SW-620", "settings": "SW-620 (Colon Cancer), 10 micromolar, 48 h", "description": "as §1, §2, §3, §4, §5"}, "[10]": {"test_system": "IGROV1", "settings": "IGROV1 (Ovarian Cancer), 10 micromolar, 48 h", "description": "as §1, §2, §3, §4, §5"}, "[11]": {"test_system": "KM12", "settings": "KM12 (Colon Cancer), 10 micromolar, 48 h", "description": "as §1, §2, §3, §4, §5"}, "[12]": {"test_system": "SK-MEL-2", "settings": "SK-MEL-2 (Melanoma), 10 micromolar, 48 h", "description": "as §1, §2, §3, §4, §5"}, "[13]": {"test_system": "NCI-H322M", "settings": "NCI-H322M (Non-Small Cell Lung Cancer), 10 micromolar, 48 h", "description": "as §1, §2, §3, §4, §5"}, "[14]": {"test_system": "SK-MEL-28", "settings": "SK-MEL-28 (Melanoma), 10 micromolar, 48 h", "description": "as §1, §2, §3, §4, §5"}, "[15]": {"test_system": "OVCAR-5", "settings": "OVCAR-5 (Ovarian Cancer), 10 micromolar, 48 h", "description": "as §1, §2, §3, §4, §5"}, "[16]": {"test_system": "SF-539", "settings": "SF-539 (CNS Cancer), 10 micromolar, 48 h", "description": "as §1, §2, §3, §4, §5"}, "[17]": {"test_system": "SK-MEL-5", "settings": "SK-MEL-5 (Melanoma), 10 micromolar, 48 h", "description": "as §1, §2, §3, §4, §5"}, "[18]": {"test_system": "T-47D", "settings": "T-47D (Breast Cancer), 10 micromolar, 48 h", "description": "as §1, §2, §3, §4, §5"}, "[19]": {"test_system": "EKVX", "settings": "EKVX (Non-Small Cell Lung Cancer), 10 micromolar, 48 h", "description": "as §1, §2, §3, §4, §5"}, "[20]": {"test_system": "SR", "settings": "SR (Leukemia), 10 micromolar, 48 h", "description": "as §1, §2, §3, §4, §5"}, "[21]": {"test_system": "DU-145", "settings": "DU-145 (Prostate Cancer), 10 micromolar, 48 h", "description": "as §1, §2, §3, §4, §5"}, "[22]": {"test_system": "UACC-62", "settings": "UACC-62 (Melanoma), 10 micromolar, 48 h", "description": "as §1, §2, §3, §4, §5"}}}
{"smiles": "COCCC(=O)NC[C@H](O)[C@H](C)C(=O)NCCC[C@H]1O[C@@]2(CCC[C@@H](CC[C@H](C)/C=C(\\C)[C@H](C)O)O2)CCC1C", "note": "(stereo partly shown) [Analog 10]", "values": [{"measurement": "Growth Percent", "setting": "[1]", "value": 90.22, "unit": "%"}, {"measurement": "Growth Percent", "setting": "[2]", "value": 29.03, "unit": "%"}, {"measurement": "Growth Percent", "setting": "[3]", "value": 13.26, "unit": "%"}, {"measurement": "Growth Percent", "setting": "[4]", "value": 30.01, "unit": "%"}, {"measurement": "Growth Percent", "setting": "[5]", "value": 46.51, "unit": "%"}, {"measurement": "Growth Percent", "setting": "[6]", "value": 72.55, "unit": "%"}, {"measurement": "Growth Percent", "setting": "[7]", "value": 50.08, "unit": "%"}, {"measurement": "Growth Percent", "setting": "[8]", "value": 50.94, "unit": "%"}, {"measurement": "Growth Percent", "setting": "[9]", "value": 45.90, "unit": "%"}, {"measurement": "Growth Percent", "setting": "[10]", "value": 17.52, "unit": "%"}, {"measurement": "Growth Percent", "setting": "[11]", "value": 73.09, "unit": "%"}, {"measurement": "Growth Percent", "setting": "[12]", "value": 53.99, "unit": "%"}, {"measurement": "Growth Percent", "setting": "[13]", "value": 113.58, "unit": "%"}, {"measurement": "Growth Percent", "setting": "[14]", "value": 71.16, "unit": "%"}, {"measurement": "Growth Percent", "setting": "[15]", "value": 61.79, "unit": "%"}, {"measurement": "Growth Percent", "setting": "[16]", "value": 40.64, "unit": "%"}, {"measurement": "Growth Percent", "setting": "[17]", "value": 75.27, "unit": "%"}, {"measurement": "Growth Percent", "setting": "[18]", "value": 71.80, "unit": "%"}, {"measurement": "Growth Percent", "setting": "[19]", "value": 29.10, "unit": "%"}, {"measurement": "Growth Percent", "setting": "[20]", "value": 40.40, "unit": "%"}, {"measurement": "Growth Percent", "setting": "[21]", "value": 54.89, "unit": "%"}, {"measurement": "Growth Percent", "setting": "[22]", "value": 48.46, "unit": "%"}]}
